From patent publication US20240279604A1, “3D spheroid having uniform size and composition comprising neuron and astrocyte derived from Alzheimer's disease patients, method for producing thereof, and method and kit for screening drug using thereof” (Industry-University Cooperation Foundation Hanyang …, priority 2023, published 2024)
Entries after “also recorded” stand apart in the source; their conditions may differ.

What was measured:
[1] = molecular target: T1, Aβ (1-42) (Homo sapiens, UniProt P05067); assay: in vitro ThT fluorescence assay for Aβ (1-42) aggregation; assay type: biochemical; settings: 10 μM compound, 2 μM Aβ (1-42), 20 μM ThT, pH 8.0, 37° C.; FIG. 6A
T1 construct: an Aβ (1-42) peptide (AGP-8338, Anygen, Gwangju, Republic of Korea); purchased Anygen AGP-8338
Procedure: The degree of inhibition of Aβ (1-42) aggregation was measured using an in vitro ThT fluorescence assay. An Aβ (1-42) stock (0.2 mM) was prepared in 50% DMSO, and NDGA and CU stocks were prepared in 100% DMSO. Reactions for Aβ (1-42) aggregation (2 μM) and its inhibition by NDGA or CU (10 μM) were performed in a 20 mM sodium phosphate buffer (pH 8.0) supplemented with 0.2 mM EDTA and 0.02% sodium azide in the presence of 20 μM ThT in microplate wells (Corning® 96-well Black Flat Bottom Polystyrene Not Treated Microplate, Corning). ThT fluorescence intensity was measured every 30 minutes under 0.5 min shaking under 335 rpm/29.5 min incubation conditions at 37° C. using an Infinite […] (TECAN Mannedorf, Switzerland) microplate reader with 450-nm excitation and 480-nm emission filters.

[2] = test system: Alzheimer's disease-derived spheroids (PS1-mutated AD-iPSC-NPCs); assay: Aβ (1-42) ELISA in Alzheimer's disease-derived spheroids cultured with drug; assay type: cell-based, human; settings: 10 μM, 3 days; FIG. 6B
Procedure: (§1) For drug efficacy testing of 3D cultured cells, PS1-mutated AD-iPSC-NPCs were differentiated into spheroids in a U-bottom plate (Thermo Fisher Scientific). Spheroids were cultured with nordihydroguaiaretic acid (NDGA)(10 μM, Tokyo Chemical Industry, Tokyo, Japan) or curcumin (CU)(10 μM, Tokyo Chemical Industry) in a humidified incubator under 37° C. and 5% CO^2 conditions for 3 days and then fixed for immunocytochemistry and western blotting.

[3] = test system: Alzheimer's disease-derived spheroids (PS1-mutated AD-iPSC-NPCs); assay: ThT staining of Aβ aggregates in Alzheimer's disease-derived spheroids; assay type: cell-based, human; settings: 10 μM, 3 days; confocal microscopy; FIG. 6C
Procedure: as §1
(§2) After washing with a probe-free medium, samples were captured and analyzed using a fluorescence microscope (FV3000, Olympus).

[4] = test system: Alzheimer's disease-derived spheroids (PS1-mutated AD-iPSC-NPCs); assay: CellEvent Caspase-3/7 Green activated caspase staining in Alzheimer's disease-derived spheroids; assay type: cell-based, human; settings: for CellEvent fluorescence signal (activated caspase cell death staining): 10 μM, 3 days, confocal microscopy, FIG. 6D; for green fluorescence of activated caspase, confocal z-stack from surface to inside of spheroids (cell penetration/uptake): confocal z-stack images, FIG. 7
Procedure: as §1
(§3) After being washed with a probe-free medium, samples were captured and analyzed using a fluorescence microscope (FV3000, Olympus). Cell penetration/uptake by CellEvent staining was analyzed with confocal z-stack data for the green fluorescence of activated caspase released from the inside of spheroids. The confocal z-stack data was obtained from 100 slides of each 1 μm of one spheroid.

[5] = test system: 3D spheroids manufactured from iPSC-NPCs derived from healthy individuals; assay: ThT staining of control 3D spheroids treated with oligomerized Aβ; assay type: cell-based, human; settings: Aβ aggregates 10 μM, 24 hours, compared to spheroids not treated with Aβ; FIG. 4A
From the text: (§4) J Neurosci Methods. 2010; 190(2): 171-179. […] When used, Aβ was suspended in PBS and used.
as §2

[6] = test system: 3D spheroids manufactured from iPSC-NPCs derived from healthy individuals; assay: CellEvent activated caspase staining of control 3D spheroids treated with oligomerized Aβ; assay type: cell-based, human; settings: Aβ aggregates 10 μM, 24 hours, compared to untreated; FIG. 4C
Procedure: as §4, §3

T1 sequence (P05067 672-713 limits assumed): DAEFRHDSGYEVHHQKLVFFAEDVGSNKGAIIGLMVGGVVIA

Row | Compound | Aβ (1-42) aggregation (ThT fluorescence) [1] | Aβ (1-42) levels by ELISA [2] | ThT fluorescence signal / staining intensity (Aβ aggregates) [3] | CellEvent fluorescence signal (activated caspase cell death staining) [4] | green fluorescence of activated caspase, confocal z-stack from surface to inside of spheroids (cell penetration/uptake) [4] | ThT fluorescence emission [5] | green fluorescence emission according to CellEvent staining (cell death) [6]
1 | CC(Cc1ccc(O)c(O)c1)C(C)Cc1ccc(O)c(O)c1 (stereo not drawn) [NDGA, nordihydroguaiaretic acid] | suppressed | decreased; also recorded: reduced | reduced | reduced | reduction in fluorescence from the surface to the inside of spheroids |  | 
2 | oligomerized Aβ: Aβ (1-42) peptide aggregated/oligomerized in DMSO, used to treat control spheroids |  |  |  |  |  | noticeably increased | substantially increased
3 | COc1cc(/C=C/C(=O)CC(=O)/C=C/c2ccc(O)c(OC)c2)ccc1O [CU, curcumin] | suppressed | decreased; also recorded: reduced | reduced | reduced | reduction in fluorescence from the surface to the inside of spheroids |  | 
